# Measured values taken from patent US10463664B2, “Inhibitors of HSV nucleotidyl transferases and uses therefor” (Saint Louis University, priority 2013, dated 2019).
# Where “and” joins values, the source holds several entries; their conditions need not be identical. Equal entries are not always repeated.
# Key:
# [1] = tested on: HSV-1; assay: Anti-HSV-1 replication assay in Vero cells, titer by plaque assay; format: cell-based, herpes simplex virus 1; conditions: for Anti-HSV-1 Log10 suppression 5 μM / Anti-HSV-1 Log10 suppression 50 μM / EC50: moi 0.1, 24 h; for Anti-HSV-1 Log10 suppression 5 μM / Anti-HSV-1 Log10 suppression 50 μM: relative to DMSO; for Control of HSV-1 replication after high moi infection: moi 5, 5 μM
# Method in brief: (§1)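 Well lysates titered by plaque assay on Vero cells versus DMSO controls; EC50 by non-linear fit from serial dilutions starting at 50 μM.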
# [2] = tested on: HSV-1 TK-deficient mutant ΔTK (strain 17); assay: Replication inhibition of thymidine kinase-deficient HSV-1 mutant in Vero cells; format: cell-based, herpes simplex virus 1; conditions: 50 μM, 24 h
# Description: Cells and Viruses. Vero cells were maintained in Dulbecco's modified Eagle's medium (DMEM) containing 3% newborn calf serum, 3% bovine growth serum, 2 mM L-glutamine and 100 IU/mL penicillin and 0.1 mg/mL streptomycin (P/S). Primary human foreskin fibroblasts (ATCC #CRL2429™) were cultured in DMEM containing 10% FBS, 2 mM L-glutamine plus P/S, and used at passage 3 to 12. HSV-1 #6 and HSV-2 #1 are de-identified clinical isolates from the Saint Louis University Hospital. Stocks were prepared after a single passage in cell culture and were titered by standard plaque assay (Knipe and Spang, 1982). Wild-type HSV-1 and HSV-2 used in FIG. 6 were laboratory strains 17 and 333, respectively. The HSV-1 TK-deficient mutant, ΔTK contains a 361-bp deletion between the BglII-SmaI restriction enzyme sites in the UL23 open reading frame of strain 17 (Korom, et al., 2013). The TK-deficient mutant of HSV-2 strain 333, ΔTK-, contains a 180-bp KpnI-KpnI deletion in the UL23 open reading frame that abrogates TK activity (McDermott, et al, 1984). ΔTK- was the generous gift of Jim Smiley. Virus stocks were grown and titered on Vero cells (Morrison and Knipe, 1996).
# Inhibition of acyclovir-resistant HSV-1 and HSV-2 mutants. […] HSV TK-deficient mutants are therefore insensitive to ACV. […] Vero cells were infected with laboratory strains of HSV-1 or HSV-2 and engineered TK-deficient mutants of the same strains. […] Similar patterns were seen when the compounds were used at 5 μM (FIG. 8B), although inhibition by compound #30 at 5 μM was too low to definitively interpret.
# [3] = tested on: HSV-1; assay: HSV-1 replication inhibition in primary human foreskin fibroblasts; format: cell-based, herpes simplex virus 1; conditions: HFF cells; for Replication inhibition HSV-1 5 μM / Replication inhibition HSV-1 50 μM: relative to DMSO-treated control
# Description: (§2) Anti-HSV-1 and -HSV-2 Replication Assay. Compounds to be screened were diluted in PBS supplemented to contain 2% newborn calf serum and 1% glutamine, and added in 100 μL, volume to confluent cell monolayers in 24-well cluster plates. Immediately thereafter HSV-1 and HSV-2, diluted in the supplemented PBS medium, were added to the wells in 50 μl volume such that the final concentration of compound was 50 μM and 5 μM and the multiplicity of infection was 0.1. The plates were incubated at 37° C. for 1 hour and then virus-containing inoculum was removed and the wells were washed once in PBS. Compounds, diluted to 50 μM and 5 μM in DMEM supplemented to contain 2% newborn calf serum and 1% each penicillin/streptomycin, were added at 0.5 mL/well. Plates were incubated at 37° C. an additional 23 hr, and then the plates were visually inspected through a phase contrast microscope for cytopathic effect, and for toxic effect. […] The entire contents of each well were collected by scraping. Samples were frozen at −80° C., and then subsequently thawed, sonicated, and infectious virus titer was determined by standard plaque assay on Vero cell monolayers. Because the compounds were dissolved at 10 mM in 100% DMSO, equivalent dilutions of DMSO were added to additional wells as a control for effects of the diluent. Each experiment was repeated once. EC50 values were determined as above except that serial dilutions of the compound to be tested were prepared starting at 50 μM. The inhibitory values were calculated by non-linear curve-fitting in GraphPad Prism.
# (§3) Inhibition of viral replication was next assessed in human foreskin fibroblasts (HFF) to determine whether NTS inhibitors could block HSV-1 and HSV-2 replication in a physiologically relevant, primary human cell type. […] Viral yields 24 hours post-infection were measured by plaque assay.
# [4] = tested on: HSV-2; assay: HSV-2 replication inhibition in primary human foreskin fibroblasts; format: cell-based, herpes simplex virus 2; conditions: for Replication inhibition HSV-2 5 μM / Replication inhibition HSV-2 50 μM / EC50: HFF cells; for Replication inhibition HSV-2 5 μM / Replication inhibition HSV-2 50 μM: relative to DMSO-treated control
# Description: as §2, §3
# [5] = target: T1, HBV RNaseH (Hepatitis B virus genotype A2 subtype adw2, UniProt P03159); assay: Biochemical inhibition of HBV RNaseH (oligonucleotide-directed RNA cleavage assay); conditions: compounds at 60, 20 or 10 μM
# T1 construct: One of the inventors recently produced active recombinant HBV RNase H; hexahistidine; made in house; host or cells: E. coli
# T1 sequence (P03159 693-845): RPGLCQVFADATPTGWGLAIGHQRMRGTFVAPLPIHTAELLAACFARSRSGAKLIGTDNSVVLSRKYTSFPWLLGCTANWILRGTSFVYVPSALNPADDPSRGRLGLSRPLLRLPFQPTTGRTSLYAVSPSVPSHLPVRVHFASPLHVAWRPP
# Method in brief: (§4)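 A DNA oligonucleotide was annealed to internally ^32P-labeled RNA, and the heteroduplex was incubated with enzyme alongside compounds at 60, 20 or 10 μM. Cleavage products were resolved by electrophoresis and detected by autoradiography, then quantified against DMSO vehicle reactions.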
# [6] = target: T2, human RNaseH1 (Homo sapiens, UniProt O60930); assay: Biochemical inhibition of human RNaseH1 (oligonucleotide-directed RNA cleavage assay); conditions: for Anti-Human RNaseH1: compounds at 60, 20 or 10 μM
# T2 construct: hexahistidine; made in house; host or cells: E. coli
# T2 sequence (O60930 1-286): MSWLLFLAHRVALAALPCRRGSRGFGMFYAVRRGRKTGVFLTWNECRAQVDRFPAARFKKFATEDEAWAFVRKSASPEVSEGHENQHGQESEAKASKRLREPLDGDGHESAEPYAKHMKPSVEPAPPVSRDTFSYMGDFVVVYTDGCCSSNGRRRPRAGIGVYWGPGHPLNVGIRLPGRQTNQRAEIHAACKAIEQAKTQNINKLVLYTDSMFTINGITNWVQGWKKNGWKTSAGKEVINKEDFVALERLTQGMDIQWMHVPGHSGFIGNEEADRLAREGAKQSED
# Method in brief: as §4
# [7] = tested on: HSV-2; assay: Anti-HSV-2 replication assay in Vero cells, titer by plaque assay; format: cell-based, herpes simplex virus 2; conditions: for Anti-HSV-2 Log10 suppression 5 μM / Anti-HSV-2 Log10 suppression 50 μM: relative to DMSO; for Control of HSV-2 replication after high moi infection: moi 5, 5 μM, 24 h
# Method in brief: as §1
# [8] = Human alphaherpesvirus 1, Vero, 24 h
Compound,Anti-HSV-1 Log10 suppression 5 μM ([1]; 5 μM),Anti-HSV-1 Log10 suppression 50 μM [1],Control of HSV-1 replication after high moi infection ([1]; 24 h),Inhibition of TK-mutant HSV-1 (in words) [2],Replication inhibition HSV-1 5 μM [3],Replication inhibition HSV-1 50 μM [3],Replication inhibition HSV-2 5 μM ([4]; 5 μM),Replication inhibition HSV-2 50 μM [4],Anti-HBV RNaseH [5],Anti-Human RNaseH1 [6],"Anti-HSV-2 Log10 suppression 5 μM ([7]; 5 μM, moi 0.1, 24 h)","Anti-HSV-2 Log10 suppression 50 μM ([7]; moi 0.1, 24 h)",Control of HSV-2 replication after high moi infection [7],EC50 [1],EC50 [3],EC50 [4],"EC50 ([7]; moi 0.1, 24 h)",further results
"Nc1nc2c(ncn2COCCO)c(=O)[nH]1 [ACV, Acyclovir, reference compound]",4.49 log10,5.85 log10,efficiently controlled virus replication,little effect,5.25 log10,6.69 log10,4.01 log10,6.27 log10,− (no inhibition at 60 μM),− (no inhibition at 60 μM),3.91 log10,5.25 log10,efficiently controlled virus replication,,,,,"EC50 [1, 8]: 210 nM; EC50 ([3]; Human alphaherpesvirus 1): 120 nM; EC50 ([4]; Human alphaherpesvirus 2): 120 nM"
CCOc1ccc(-c2c3cc(O)c(=O)cc-3oc3cc(O)c(O)cc23)cc1 [Compound 30],1.39 log10,4.02 log10,,efficiently inhibited,3.22 log10,5.23 log10,2.04 log10,6.68 log10,+++ (inhibition at 10 μM),+++ (inhibition at 10 μM),3.69 log10,4.55 log10,,5930 nM and 4200 nM,320 nM,520 nM,3930 nM,Fold less effective inhibition of HSV-2 in HFF cells than in Vero cells ([4]; 5 μM): ~45 fold; Concentration giving inhibition of purified human RNaseH 1 [6]: < 60 µM; Fold more active against HSV-2 than HSV-1 ([7]; 5 μM): > 100 fold
"Cc1cc(C2CCCCC2)n(O)c(=O)c1 [Compound 41, Ciclopirox, reference compound]",,5.23 log10,,efficiently inhibited,5.06 log10,5.57 log10,5.21 log10,4.97 log10,− (no inhibition at 60 μM),+ (inhibition at 60 μM),,5.25 log10,,,,,,"EC50 [1, 8]: 270 nM; Inhibition of HSV-1 replication (in words) ([1]; primary screening): strong inhibitor; EC50 ([3]; Human alphaherpesvirus 1): 140 nM; Suppression of HSV-2 replication, ciclopirox versus its salt ([4]; HFFs, various concentrations, 24 hours): equivalent extent; EC50 ([4]; Human alphaherpesvirus 2): 1000 nM; EC50 ([7]; Human alphaherpesvirus 2, moi 0.1, 24 h): 450 nM; Inhibition of HSV-2 replication (in words) ([7]; primary screening): strong inhibitor"
"CC(C)c1ccc(O)c(=O)c(O)c1 [Compound 46, Beta-thujaplicinol]",,4.81 log10,efficiently controlled virus replication,efficiently inhibited,5.83 log10,6.39 log10,5.17 log10,5.83 log10,+++ (inhibition at 10 μM),+ (inhibition at 60 μM),,5.12 log10,efficiently controlled virus replication,1940 nM,970 nM,380 nM,1690 nM,
"CC(C)=CCc1ccc(O)c(=O)cc1C(C)C [Compound 49, Nootkatin]",,4.72 log10,,,5.79 log10,6.27 log10,5.47 log10,5.98 log10,− (no inhibition at 60 μM),− (no inhibition at 60 μM),,5.05 log10,,240 nM,740 nM,1230 nM,190 nM and 220 nM,
CC(=O)NC(CCc1ccc(Cl)c(Cl)c1)c1cccc(O)c(=O)c1 (centres unmarked) [Compound 55],,5.04 log10,efficiently controlled virus replication,,4.99 log10,6.17 log10,3.94 log10,6.55 log10,+ (inhibition at 60 μM),+ (inhibition at 60 μM),,5.06 log10,efficiently controlled virus replication,420 nM,2810 nM,1670 nM,1070 nM,
"C=C(C)C1CCc2c(c(C)cc(O)c(=O)c2O)C1 (centres unmarked) [Compound 56, Manicol]",5.14 log10,5.82 log10,,,5.72 log10,6.39 log10,5.93 log10,6.80 log10,+++ (inhibition at 10 μM),− (no inhibition at 60 μM),5.95 log10,5.79 log10,,350 nM,240 nM,550 nM,580 nM,"HSV-1 replication inhibition, fold ([1]; 5 μM): 138,000 fold; HSV-2 replication inhibition, fold ([7]; 5 μM): 891,000 fold"
